Like-named read-outs stand apart in the source and are kept apart here.
What was measured:
Assay type in all cases: cell-based
OV90 = experiment: cells; conditions: Homo sapiens, OV-90, 120 h, read-out: IC50 (nM) OV90
Experimental: (§1) MDA-MB-231, OV90, and NCI-N87 cells at defined cell densities (1,500 cells per well, 80 µL volume) were seeded into 96-well plates. The cells were cultured overnight in a constant-temperature incubator (37°C, 5% CO2). Ecteinascidin derivative solutions at a maximum concentration of 2 mM were first prepared in DMSO, and serial 1:4 gradient dilutions were performed. 1 µL of each DMSO-prepared dilution was added to 99 µL of PBS containing 10% FBS per well and mixed thoroughly. The diluted solutions (2 µL of diluted solution and 18 µL of PBS containing 10% FBS per well) were then co-incubated with the cells (37°C, 5% CO2) for five days, after which CellTiter-Glo reagent (40 µL per well) was added, and […] values were measured using an i3x microplate reader.

NCI-N87 = experiment: cells; conditions: Homo sapiens, read-out: IC50 (nM) NCI-N87
Experimental: as §1

MDA-MB-231 = experiment: cells; conditions: Homo sapiens, read-out: IC50 (nM) MDA-MB-231
Experimental: as §1

[1] = system: MDA-MB-231, OV90, and NCI-N87 cells; experiment: Tumor cell proliferation inhibition assay of novel ecteinascidin derivatives, summary over the three cell lines; conditions: compared with trabectedin and lurbinectedin
Experimental: as §1, with “The” for “MDA-MB-231, OV90, and NCI-N87 cells at defined cell densities (1,500 cells per well, 80 µL volume) were seeded into 96-well plates. The”

[2] = OV90 cells, five days co-incubation
[3] = 120 h, NCI-N87 cells, five days co-incubation
[4] = 120 h, MDA-MB-231 cells, five days co-incubation

Structure (SMILES)	IC50 (OV90; [2])	IC50 (NCI-N87; [3])	IC50 (MDA-MB-231; [4])	in-vitro cytotoxic activities [1]	IC50 (OV90)	IC50 (NCI-N87; NCI-N87, 120 h)	IC50 (MDA-MB-231; MDA-MB-231, 120 h)
COc1ccc2[nH]c3c(c2c1)CCN[C@]31CS[C@@H]2c3c(OC(C)=O)c(C)c4c(c3[C@H](COC1=O)N1[C@@H]2[C@H]2c3c(cc(C)c(OC)c3O)C[C@@H]([C@@H]1O)N2C)OCO4 [Lurbinectedin, reference compound]	1 to 10 nM	< 1 nM	1 to 10 nM				
COc1c(C)cc2c(c1O)[C@@H]1[C@@H]3[C@@H]4SC[C@]5(NCCc6cc(N)c(F)cc65)C(=O)OC[C@@H](c5c6c(c(C)c(OC(C)=O)c54)OCO6)N3[C@@H](C#N)[C@H](C2)N1C [P1]	< 1 nM	< 1 nM	< 1 nM	superior to or comparable to those of trabectedin and lurbinectedin			
COc1c(C)cc2c(c1O)[C@@H]1[C@@H]3[C@@H]4SC[C@]5(NCCc6cc(N)c(N(C)C)cc65)C(=O)OC[C@@H](c5c6c(c(C)c(OC(C)=O)c54)OCO6)N3[C@@H](C#N)[C@H](C2)N1C [P5]					1 to 10 nM	1 to 10 nM	1 to 10 nM
COc1c(C)cc2c(c1O)[C@@H]1[C@@H]3[C@@H]4SC[C@]5(NC[C@@H](O)c6cc(N)ccc65)C(=O)OC[C@@H](c5c6c(c(C)c(OC(C)=O)c54)OCO6)N3[C@@H](C#N)[C@H](C2)N1C [P9]	< 1 nM	< 1 nM	< 1 nM	superior to or comparable to those of trabectedin and lurbinectedin			
COc1c(C)cc2c(c1O)[C@@H]1[C@@H]3[C@@H]4SC[C@]5(NC[C@H](O)c6cc(N)ccc65)C(=O)OC[C@@H](c5c6c(c(C)c(OC(C)=O)c54)OCO6)N3[C@@H](C#N)[C@H](C2)N1C [P10]	< 1 nM	< 1 nM	< 1 nM	superior to or comparable to those of trabectedin and lurbinectedin			
COc1cc2c(cc1N)[C@H](O)CN[C@]21CS[C@@H]2c3c(OC(C)=O)c(C)c4c(c3[C@H](COC1=O)N1[C@@H]2[C@H]2c3c(cc(C)c(OC)c3O)C[C@@H]([C@@H]1C#N)N2C)OCO4 [P12]	< 1 nM	< 1 nM	< 1 nM	superior to or comparable to those of trabectedin and lurbinectedin			
COc1cc2c(cc1N)[C@@H](O)CN[C@]21CS[C@@H]2c3c(OC(C)=O)c(C)c4c(c3[C@H](COC1=O)N1[C@@H]2[C@H]2c3c(cc(C)c(OC)c3O)C[C@@H]([C@@H]1C#N)N2C)OCO4 [P13]	< 1 nM	< 1 nM	< 1 nM	superior to or comparable to those of trabectedin and lurbinectedin			
COc1cc2c(cc1N)[C@@H](OS(=O)(=O)O)CN[C@]21CS[C@@H]2c3c(OC(C)=O)c(C)c4c(c3[C@H](COC1=O)N1[C@@H]2[C@H]2c3c(cc(C)c(OC)c3O)C[C@@H]([C@@H]1C#N)N2C)OCO4 [P14]	> 200 nM	> 200 nM	> 200 nM				
COc1cc2c(cc1N)C(C)(C)CN[C@]21CS[C@@H]2c3c(OC(C)=O)c(C)c4c(c3[C@H](COC1=O)N1[C@@H]2[C@H]2c3c(cc(C)c(OC)c3O)C[C@@H]([C@@H]1C#N)N2C)OCO4 [P19]	< 1 nM	< 1 nM	< 1 nM	superior to or comparable to those of trabectedin and lurbinectedin			
COc1cc2c(cc1N)C(N(C)C)CN[C@]21CS[C@@H]2c3c(OC(C)=O)c(C)c4c(c3[C@H](COC1=O)N1[C@@H]2[C@H]2c3c(cc(C)c(OC)c3O)C[C@@H]([C@@H]1C#N)N2C)OCO4 (some centres unmarked) [P30]	< 1 nM	< 1 nM	< 1 nM	superior to or comparable to those of trabectedin and lurbinectedin			
COc1cc2c(cc1N)C1(CC1)CN[C@]21CS[C@@H]2c3c(OC(C)=O)c(C)c4c(c3[C@H](COC1=O)N1[C@@H]2[C@H]2c3c(cc(C)c(OC)c3O)C[C@@H]([C@@H]1C#N)N2C)OCO4 [P36]	< 1 nM	< 1 nM	< 1 nM	superior to or comparable to those of trabectedin and lurbinectedin			
COc1cc2c(cc1NC(=O)CO)CCN(C)[C@]21CS[C@@H]2c3c(OC(C)=O)c(C)c4c(c3[C@H](COC1=O)N1[C@@H]2[C@H]2c3c(cc(C)c(OC)c3O)C[C@@H]([C@@H]1C#N)N2C)OCO4 [P90]	< 1 nM	< 1 nM	< 1 nM				
COc1cc2c(cc1N)[C@H](CC1CC1)CN[C@]21CS[C@@H]2c3c(OC(C)=O)c(C)c4c(c3[C@H](COC1=O)N1[C@@H]2[C@H]2c3c(cc(C)c(OC)c3O)C[C@@H]([C@@H]1C#N)N2C)OCO4 [P261]	10 to 200 nM	10 to 200 nM	1 to 10 nM				

Reference: patent EP4778932A1 (priority 2023, dated 2025)
